In patent publication US20110281369A1 (Board of Governors for Higher Education, State of Rhode …, priority 2006, published 2011):
Values joined by “and” are separate entries in the source; they are usually repeats but may differ in a detail not shown here. Equal values may be shown once.

Columns and labels:
[1] = Total and unbound MPA and metabolite concentrations in plasma of kidney transplant recipients (HPLC-UV; ultrafiltration followed by LC-MS/MS); type: in vivo, human; conditions: 29 kidney transplant recipients
Method: (§1) Patients were receiving 1000-2000 mg/day mycophenolate mofetil (Cellcept® Roche Laboratories). Unstimulated saliva samples were collected by passive drool into a plastic cup within a 5-min period of blood collection and stored at −80° C. until analysis. The patients remained fasted for the first 2 hours of sampling but then were allowed standard hospital meals.
(§2) Given the fact that the possibility of blood leakage in saliva is high at morning trough (FIG. 3), have collected 144 additional saliva samples obtained during another pharmacokinetic study. Therefore the data represented in the next section were obtained from 29 kidney transplant recipients throughout a 12-hour dosing interval.

[2] = MPA concentration in saliva of kidney transplant recipients by LC-MS/MS; type: in vivo, human
Method: Indomethacin (INDO, Alfa Aesar) was used as the internal standard. All reagents and solvents were high performance liquid chromatography (HPLC) grade. […] Calibrators and Quality Control standards (QCs) were prepared using pooled unstimulated whole saliva collected from at least six healthy volunteers (IRB Approval#HU0203-120). […] All calibrators and QCs were aliquoted into 2 mL cryovials and maintained at −20° C. until use.
Extraction of MPA from saliva was carried out by protein precipitation. Calibrators, QC's or patient samples were thawed in a shaking water bath at 37° C. for 5 min. The samples were then sonicated for 10 seconds and 100 μL was pipetted into a microcentrifuge tube, followed by the subsequent additions 50 μL methanol containing INDO (500 μg/L) and […] acetonitrile. The tubes were vortex mixed for 90 seconds and centrifuged at 16,000 g for 5 min. The supernatants were carefully aspirated into glass culture tubes and dried at 50° C. in a centrifugal evaporator (Thermosavant Holbrook, N.Y.) after which they were reconstituted with 100 μL of 85:15% v/v of methanol and 0.05% formic acid in de-ionized water and a 20 μL aliquot was injected onto the column.
Analytical column was Zorbax Rx C8 (150 mm×4.6 mm, 5 μm) from Agilent Technologies (Palo Alto, Calif.) and mobile phase was a gradient mixture of methanol and deionized water containing 0.05% formic acid. […] For this, a combined mixture of the analytes (1 mg/L each) in mobile phase was infused continuously onto the mass spectrometer and the residues extracted from blank saliva were injected simultaneously via a three way T-valve. In accordance with further embodiments, the ionization technique may involve any of photoionization, electrospray ionization, atmospheric pressure chemical ionization, electron capture ionization or selective ion monitoring, and may be performed in positive mode or negative mode.
as §1, §2

[3] = Stock solution stability of methanolic stock solutions at room temperature; type: physicochemical; conditions: 8 hours, against freshly prepared samples
[4] = cited from earlier work
[5] = Stability of MPA in saliva based quality control standards (freeze-thaw, short term, autosampler); type: physicochemical; conditions: for Short term stability: bench top 5 hours at room temperature; for Short term stability / Freeze-thaw stability / Autosampler stability: n=3, mean ± SD, in % (unit assumed); for Freeze-thaw stability: three cycles of freezing at −20° C. and thawing at room temperature; for Autosampler stability: dried and reconstituted extracts 14-hours in autosampler
Method: The lower limit of quantification (LLOQ) and limit of detection (LOD) were defined at a signal to noise ratio of 5:1 and 3:1, respectively. The recovery of the extraction procedure was done by comparing the peak areas obtained from an extracted saliva based standard of MIPA or INDO with the peak areas of these analytes in methanol. To evaluate intraday coefficient of variation (CV %) of the assay, QCs were analyzed six times on the same day. Interday CV % and accuracy was evaluated by measuring the QC concentrations over 10 days using a separate calibration curve for each set. […] For short term stability studies, samples were kept on the bench top for 5 hours at room temperature and for freeze-thaw stability studies, samples were subjected to three cycles of freezing at −20° C. and thawing unassisted at room temperature. To evaluate autosampler stability, dried and reconstituted extracts were kept in the autosampler for 14-hours and then analyzed.

[6] = 29 kidney transplant recipients, N=243
[7] = 29 kidney transplant recipients, N=246

SMILES: COc1c(C)c2c(c(O)c1C/C=C(\C)CCC(=O)O[C@@H]1O[C@H](C(=O)O)[C@@H](O)[C@H](O)[C@H]1O)C(=O)OC2 [AcMPAG, Acyl-MPAG]
- AcMPAG conc, Mean ± SD ([1]; plasma, N=244): 1.8 ± 1.4 mg/L
- AcMPAG conc, Median ([1]; plasma, N=244): 1.5 mg/L
- AcMPAG conc, Min-Max ([1]; plasma, N=244): 0.4 to 8.5 mg/L
- Presence of AcMPAG peak in patient saliva ([2]; saliva of kidney transplant recipients, LC-MS/MS chromatogram): no AcMPAG peak was observed

SMILES: COc1ccc2c(c1)c(CC(=O)O)c(C)n2C(=O)c1ccc(Cl)cc1 [INDO, Indomethacin]
- Loss of analyte at room temperature from methanolic stock solution [3]: 10%

SMILES: COc1c(C)c2c(c(O)c1C/C=C(\C)CCC(=O)O)C(=O)OC2 [MPA, Mycophenolic acid]
- Loss of analyte at room temperature from methanolic stock solution [3]: 0.6%
- pKa [4]: 4.5
- Unbound MPA conc, Mean ± SD ([1]; plasma ultrafiltrate, N=243): 27.9 ± 36.6 µg/L
- Unbound MPA conc, Median ([1]; plasma ultrafiltrate, N=243): 14.5 µg/L
- Unbound MPA conc, Min-Max ([1]; plasma ultrafiltrate, N=243): 1.8 to 267.0 µg/L
- Total MPA conc, Median ([1]; plasma, N=244): 2.3 mg/L
- Total MPA conc, Min-Max ([1]; plasma, N=244): 0.3 to 38.5 mg/L
- Total MPA conc, Mean ± SD ([1]; plasma, N=244, 12-hour dosing interval): 3.7 ± 4.7 mg/L
- Salivary concentration of MPA before administration of Cellcept morning dose (morning trough) ([2]; 11 kidney transplant recipients, morning trough): 79.8 ± 63.7 µg/L
- Saliva concentration of MPA, range ([2]; 11 kidney transplant recipients, n=100 samples, 12-hour dosing interval): 2.6 to 2204 µg/L and 2.6 to 220.4 µg/L
- Saliva concentration of MPA, Mean±SD ([2]; 11 kidney transplant recipients, n=100 samples, 12-hour dosing interval, 1000-2000 mg/day mycophenolate mofetil): 31.4 ± 32.3 µg/L
- Average deviation between saliva and unbound plasma concentrations ([2]; 29 kidney transplant recipients, 244 saliva samples): 0.49 ng/mL
- Deviation between saliva and unbound conc, Mean ± SD (average deviation) [2, 6]: 0.49 µg/L and 0.49 ± 44.25 µg/L
- Deviation between saliva and unbound conc, Median [2, 6]: 1.89 µg/L
- Deviation between saliva and unbound conc, Min-Max [2, 6]: -208.10 to 264.54 µg/L
- Saliva MPA conc, Mean ± SD [2, 7]: 28.3 ± 32.3 µg/L
- Saliva MPA conc, Median [2, 7]: 18.1 µg/L
- Saliva MPA conc, Min-Max [2, 7]: 1.4 to 283.9 µg/L
- Saliva MPA compared with unbound plasma concentration ([2]; two hours post dose, absorption phase): considerably lower
- Short term stability ([5]; 10 μg/L MPA in saliva): 106.0 ± 3.6
- Freeze-thaw stability ([5]; 10 μg/L MPA in saliva): 103.6 ± 7.1
- Autosampler stability ([5]; 10 μg/L MPA): 95.0 ± 6.6
- Short term stability ([5]; 600 μg/L MPA in saliva): 98.7 ± 2.7
- Freeze-thaw stability ([5]; 600 μg/L MPA in saliva): 98.9 ± 1.1
- Autosampler stability ([5]; 600 μg/L MPA): 98.2 ± 0.6
- Stability in saliva based standards (in words) ([5]; under the experimental condition described): stable

SMILES: COc1c(C)c2c(c(O[C@@H]3O[C@H](C(=O)O)[C@@H](O)[C@H](O)[C@H]3O)c1C/C=C(\C)CCC(=O)O)C(=O)OC2 [MPAG, MPA-glucuronide]
- MPAG conc, Mean ± SD ([1]; plasma, N=244): 51.8 ± 31.6 mg/L
- MPAG conc, Median ([1]; plasma, N=244): 43.8 mg/L
- MPAG conc, Min-Max ([1]; plasma, N=244): 10.6 to 180.5 mg/L
